# According to US20120009280A1, “METHOD OF REDUCING THE RATE OF DEGRADATION OF A BIOLOGICAL MATERIAL” (Bio-Energy Ingredients Limited, priority 2009, published 2012):
# Legend:
# total micro-organism = assay: Total microbial (plate) count of spent brewer's / wet distiller's grains stored at ambient temperature; assay type: cell-based
# In short: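 Spent brewer's grains taken from a brewery discharge line were mixed at the laboratory and treated with powdered commercial calcium oxide containing approximately 94% CaO. Each batch was kept under insect-proof screens at ambient temperature, with no further treatment or agitation. Samples were drawn every seven days, and the entire sample was sent to a microbiological testing facility for total microbial counts.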
# yeast = assay: Yeast count of spent brewer's / wet distiller's grains stored at ambient temperature; assay type: cell-based
# Protocol: Samples of Portion 1 (“AR”), Portion 3 (“SO”) and Portion 5 (“SH”) were then delivered to a microbiological testing facility about 15 kilometres from the treatment laboratory. Each was tested for initial total microbial, yeast and mould counts, respectively.
# Separate untreated samples were similarly stored under insect-proof screens at ambient temperature for seven days (as shown in Tables 1 and 2). During the trial period the ambient temperature ranged from 11 to 33 degrees C.
# The free moisture content on the initial spent brewer's grains was determined to be 78.1% m/m. After exposure to the environment for seven days, all of the samples were tested at a South African National Accreditation System (SANAS) approved microbiological testing facility. Each was tested for total micro-organism, yeast and mould counts to determine the affect of the various treatments. A similar procedure to that described in K. A. Rosentrater et al, Food Bioprocess Technol (2008) was used for the microbiological evaluation.
# At the laboratory, the samples were thoroughly mixed and initially split into a first portion (Portion 1) and a second portion (Portion 2). Portion 1 was left untreated. A sample of Portion 1, was delivered immediately to a microbiological testing facility about 15 kilometres away from the treatment laboratory and was tested for initial total microbial, yeast and mould counts, respectively. No water removal prior to treatment was done in this experiment as was the case in Example 8 wherein a similar wet material was partially dewatered by pressing and the residue treated with 10% (w/w/) calcium oxide.
# Samples from Portion 2 were subjected to treatment with varying amounts of a powdered, commercially-available calcium oxide containing approximately 94% calcium oxide (CaO) as shown in Table 32. The treatments varied from 2.5 to 10% (w/w) calcium oxide addition. The samples were stored in batches (according to the calcium oxide treatment) under insect-proof screens at ambient temperature for fifty six days. Separate untreated samples were similarly stored under insect-proof screens at ambient temperature for a total of 56 days. During the trial period the ambient temperature ranged from 10 to 30 degrees C. As this period was the southern hemisphere spring/early summer, the humidity as well as ambient temperatures varied widely.
# The free moisture content on the initial spent brewer's grains was determined to be 79.4% m/m. After exposure to the environment for seven days, all of the samples were tested at a South African National Accreditation System (SANAS) approved microbiological testing facility. Each was tested for total micro-organism, yeast and mould counts to determine the affect of the various treatments. A similar procedure to that described in K. A. Rosentrater et al, Food Bioprocess Technol (2008) was used for the microbiological evaluation.
# Samples from each treatment were drawn every seven days. No further calcium oxide treatment or agitation took place after the initial mix. In each case the entire sample was isolated and delivered to the microbiological testing facility.
# The calcium oxide treatment trial described in Example 9 wherein wet distiller's grains were treated with 2.5%, 5% and 10.0% calcium oxide, respectively, versus untreated material was repeated using lower doses of calcium oxide. In this trial the same source of wet distiller's grains (again with now partial water removal prior to treatment) was treated. Also, the same protocol as described in Example 9 was applied, but at lower doses of calcium oxide i.e. 0.5%, 1.0%, 1.5%, 2.0% and 2.5%, respectively, versus untreated material.
# In this trial the same source of wet distiller's grains (again with now partial water removal prior to treatment) was treated. Also, the same protocol as described in Example 9 was applied.
# [1] = dose 5% w/w, distiller's grains not de-watered, Examples 16-18
# [2] = wet distiller's grains, 0.5% CaO (w/w), day 2
# [3] = wet distiller's grains, 1.0% CaO (w/w), day 1
# [4] = wet distiller's grains, 1.5% CaO (w/w), day 10
# [5] = wet distiller's grains, 2.0% CaO (w/w), day 2
# [6] = wet distiller's grains, 2.5% CaO (w/w), day 14
# [7] = wet distiller's grains, 5.0% CaO (w/w), day 21
# [8] = wet distiller's grains, 10.0% CaO (w/w), day 14
smiles,measurement,setting,value
[O]=[Ca] [calcium oxide],shelf life of fermentation residue,total micro-organism; 2.5% (w/w) calcium oxide powder added to the fermentation residue,at least 10 days
same,Total plate count,"total micro-organism; 5% CaO (w/w) powder, week 1",2770 cfu/gram
same,Total plate count,"total micro-organism; 5% CaO (w/w) powder, week 2",200 cfu/gram
same,Total plate count,"total micro-organism; 5% CaO (w/w) powder, week 3",4800 cfu/gram
same,Total plate count,"total micro-organism; 5% CaO (w/w) powder, week 4",10 cfu/gram
same,Total plate count,"total micro-organism; 5% CaO (w/w) powder, week 5",10 cfu/gram
same,shelf life of fermentation residue,total micro-organism; 10% (w/w) calcium oxide added to the fermentation residue,at least 63 days
same,effect on micro-organism levels,"total micro-organism; calcium oxide 0.5% (w/w), Example 14",only a very limited effect
same,suppressed microbial levels up to day,"total micro-organism; calcium oxide 1.0% (w/w), Example 14",8 days
same,preservation effect period,"total micro-organism; calcium oxide 2.5% (w/w), Example 9",only the first week
same,preservation effect period,"total micro-organism; calcium oxide 5.0% (w/w), Example 9",49 days
same,preservation effect period,"total micro-organism; calcium oxide 10% (w/w), Example 9",56 days
same,preservation period,"total micro-organism; calcium oxide 10% (w/w), Example 18",9 week
same,total microbial count after treatment,"total micro-organism; calcium oxide 10% (w/w), spent brewer's grains, initial count 3,300,000",zero
same,preservation effect period,"total micro-organism; calcium oxide levels of 2.0% and 2.5% (w/w), Example 14",10 days
same,microbial counts,"total micro-organism; calcium oxide powder 5% and 10% (w/w), end of the 9 week period",<10 to 20 cfu/gram
same,preservation time with total microbial counts <10 cfu/g,total micro-organism; [1],≧9 weeks
same,preservation time with total microbial counts <100 cfu/g,total micro-organism; [1],≧9 weeks
same,preservation time with total microbial counts <1000 cfu/g,total micro-organism; [1],≧9 weeks
same,preservation time with total microbial counts <10 cfu/g,"total micro-organism; dose 10% w/w, distiller's grains not de-watered, Examples 16-18",≧9 weeks
same,Total plate count,"total micro-organism; wet distiller's grains, 0.5% CaO (w/w), day 1",1.01E+06 cfu/gram
same,Total plate count,total micro-organism; [2],680000 cfu/gram
same,Total plate count,"total micro-organism; wet distiller's grains, 0.5% CaO (w/w), day 3",35000 cfu/gram
same,Total plate count,"total micro-organism; wet distiller's grains, 0.5% CaO (w/w), day 6",5.60E+07 cfu/gram
same,Total plate count,"total micro-organism; wet distiller's grains, 0.5% CaO (w/w), day 8",3.30E+06 cfu/gram
same,Total plate count,total micro-organism; [3],3.50E+06 cfu/gram
same,Total plate count,"total micro-organism; wet distiller's grains, 1.0% CaO (w/w), day 2",3600 cfu/gram
same,Total plate count,"total micro-organism; wet distiller's grains, 1.0% CaO (w/w), day 3",720 cfu/gram
same,Total plate count,"total micro-organism; wet distiller's grains, 1.0% CaO (w/w), day 6",120 cfu/gram
same,Total plate count,"total micro-organism; wet distiller's grains, 1.0% CaO (w/w), day 8",320 cfu/gram
same,Total plate count,"total micro-organism; wet distiller's grains, 1.0% CaO (w/w), day 10",4.70E+07 cfu/gram
same,Total plate count,"total micro-organism; wet distiller's grains, 1.5% CaO (w/w), day 1",26200 cfu/gram
same,Total plate count,"total micro-organism; wet distiller's grains, 1.5% CaO (w/w), day 2",110 cfu/gram
same,Total plate count,"total micro-organism; wet distiller's grains, 1.5% CaO (w/w), day 3",40 cfu/gram
same,Total plate count,"total micro-organism; wet distiller's grains, 1.5% CaO (w/w), day 6",90 cfu/gram
same,Total plate count,"total micro-organism; wet distiller's grains, 1.5% CaO (w/w), day 8",730 cfu/gram
same,Total plate count,total micro-organism; [4],70 cfu/gram
same,Total plate count,"total micro-organism; wet distiller's grains, 2.0% CaO (w/w), day 1",1090 cfu/gram
same,Total plate count,total micro-organism; [5],130 cfu/gram
same,Total plate count,"total micro-organism; wet distiller's grains, 2.0% CaO (w/w), day 3",130 cfu/gram
same,Total plate count,"total micro-organism; wet distiller's grains, 2.0% CaO (w/w), day 6",340 cfu/gram
same,Total plate count,"total micro-organism; wet distiller's grains, 2.0% CaO (w/w), day 8",180 cfu/gram
same,Total plate count,"total micro-organism; wet distiller's grains, 2.0% CaO (w/w), day 10",60 cfu/gram
same,Total plate count,"total micro-organism; wet distiller's grains, 2.5% CaO (w/w), day 1",5300 cfu/gram
same,Total plate count,"total micro-organism; wet distiller's grains, 2.5% CaO (w/w), day 2",60 cfu/gram
same,Total plate count,"total micro-organism; wet distiller's grains, 2.5% CaO (w/w), day 3",240 cfu/gram
same,Total plate count,"total micro-organism; wet distiller's grains, 2.5% CaO (w/w), day 6",90 cfu/gram
same,Total plate count,"total micro-organism; wet distiller's grains, 2.5% CaO (w/w), day 7",10 cfu/gram
same,Total plate count,"total micro-organism; wet distiller's grains, 2.5% CaO (w/w), day 8",150 cfu/gram
same,Total plate count,"total micro-organism; wet distiller's grains, 2.5% CaO (w/w), day 10",50 cfu/gram
same,Total plate count,total micro-organism; [6],"74,000 cfu/gram"
same,Total plate count,"total micro-organism; wet distiller's grains, 2.5% CaO (w/w), day 21","1,010,000 cfu/gram"
same,Total plate count,"total micro-organism; wet distiller's grains, 2.5% CaO (w/w), day 56","6,800,000 cfu/gram"
same,Total plate count,"total micro-organism; wet distiller's grains, 5.0% CaO (w/w), day 7",660 cfu/gram
same,Total plate count,"total micro-organism; wet distiller's grains, 5.0% CaO (w/w), day 14","82,000 cfu/gram"
same,Total plate count,total micro-organism; [7],180 cfu/gram
same,Total plate count,"total micro-organism; wet distiller's grains, 5.0% CaO (w/w), day 42",20 cfu/gram
same,Total plate count,"total micro-organism; wet distiller's grains, 5.0% CaO (w/w), day 49",50 cfu/gram
same,Total plate count,"total micro-organism; wet distiller's grains, 5.0% CaO (w/w), day 56","3,400 cfu/gram"
same,Total plate count,"total micro-organism; wet distiller's grains, 10.0% CaO (w/w), day 7",740 cfu/gram
same,Total plate count,total micro-organism; [8],150 cfu/gram
same,Total plate count,"total micro-organism; wet distiller's grains, 10.0% CaO (w/w), day 21",100 cfu/gram
same,Total plate count,"total micro-organism; wet distiller's grains, 10.0% CaO (w/w), day 42",130 cfu/gram
same,Total plate count,"total micro-organism; wet distiller's grains, 10.0% CaO (w/w), day 49",80 cfu/gram
same,Total plate count,"total micro-organism; wet distiller's grains, 10.0% CaO (w/w), day 56",460 cfu/gram
same,Yeast Count,"yeast; 5% CaO (w/w) powder, week 4",10 cfu/gram
same,Yeast Count,yeast; [2],<10 cfu/gram
same,Yeast Count,yeast; [3],<10 cfu/gram
same,Yeast Count,yeast; [4],<10 cfu/gram
same,Yeast Count,yeast; [5],<10 cfu/gram
same,Yeast Count,yeast; [6],"52,000 cfu/gram"
same,Yeast Count,yeast; [7],10 cfu/gram
same,Yeast Count,yeast; [8],120 cfu/gram
